# Measurements: patent US20250177396A1, “POLO-LIKE KINASE 4 (PLK4) INHIBITORS, PHARMACEUTICAL COMPOSITIONS, METHODS OF PREPARATION AND USES THEREOF” (Repare Therapeutics Inc., priority 2022, published 2025)
# Molecular target: T1, PLK4 (Homo sapiens, UniProt O00444)
# T1 construct: expressed in transfected cells; host or cells: HEK293 T cells (ATCC CRL-3216)
# T1 sequence (O00444 1-970): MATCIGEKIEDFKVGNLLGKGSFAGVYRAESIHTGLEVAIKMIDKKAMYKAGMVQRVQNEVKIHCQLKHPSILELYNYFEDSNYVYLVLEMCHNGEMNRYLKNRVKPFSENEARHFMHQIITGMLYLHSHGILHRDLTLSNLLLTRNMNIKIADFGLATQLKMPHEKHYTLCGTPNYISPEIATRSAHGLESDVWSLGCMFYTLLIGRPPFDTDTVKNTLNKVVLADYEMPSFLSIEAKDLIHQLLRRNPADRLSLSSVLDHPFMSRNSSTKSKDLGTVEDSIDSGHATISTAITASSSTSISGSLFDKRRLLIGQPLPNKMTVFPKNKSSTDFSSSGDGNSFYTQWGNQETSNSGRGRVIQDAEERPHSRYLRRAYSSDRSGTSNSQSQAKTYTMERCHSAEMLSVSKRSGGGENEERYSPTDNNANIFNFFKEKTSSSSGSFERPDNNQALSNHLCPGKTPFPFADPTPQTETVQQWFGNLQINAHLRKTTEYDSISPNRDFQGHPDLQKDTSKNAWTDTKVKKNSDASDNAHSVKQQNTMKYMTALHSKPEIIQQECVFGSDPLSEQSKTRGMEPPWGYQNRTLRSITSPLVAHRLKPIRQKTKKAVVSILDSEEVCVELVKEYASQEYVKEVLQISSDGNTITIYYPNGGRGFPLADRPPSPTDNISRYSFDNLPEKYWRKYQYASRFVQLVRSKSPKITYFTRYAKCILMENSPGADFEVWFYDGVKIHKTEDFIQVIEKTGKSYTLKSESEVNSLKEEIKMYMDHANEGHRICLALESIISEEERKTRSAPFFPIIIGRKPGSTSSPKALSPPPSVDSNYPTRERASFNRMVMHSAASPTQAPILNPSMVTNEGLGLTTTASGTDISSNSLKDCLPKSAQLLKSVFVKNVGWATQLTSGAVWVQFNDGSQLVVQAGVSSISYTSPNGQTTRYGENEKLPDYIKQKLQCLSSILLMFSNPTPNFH
# Experiment: PLK4 NanoBRET target engagement assay
# Format: binding
# Settings: HEK293 T cells transfected with PLK4 NanoLuc fusion vector; K-5 tracer; 2 hrs incubation
# Protocol: To determine the affinity of Compounds described herein in the PLK4 NanoBRET target engagement assay, HEK293 T cells (ATCC Product Number CRL-3216) are first transfected with the PLK4 NanoLuc fusion vector DNA and Transfection carrier DNA using the Fugene HD Transfection reagent in Opti-MEM No Phenol Red buffer. After an overnight incubation in a 37° C./5% CO2 incubator, the transfected HEK293 T cells are trypsinized, counted, and resuspended in Opti-MEM No Phenol Red buffer at a concentration of 200000 cells/mL. White 96-well plates are then plated with 85 μL of cells (17000 cells/well) to which 5 μL of the 20×K-5 tracer solution diluted in tracer dilution buffer is added. Finally, 10 μL of the 10× compounds are added and the plates and then incubated in a 37° C./5% CO2 incubator for 2 hrs. After the incubation, a 50 uL 3× solution of the substrate/inhibitor mix is added to the cells. The plate is then transferred in the Envision plate reader where the Acceptor emission (610 nm) and the Donor emission (450 nm) are measured.
# The IC50 of compounds is determined as follows: • 1. The ratio between the Acceptor emission (610 nm)/Donor emission (450 nm) is calculated. • 2. This ratio is then multiplied by 1000 to obtain the mBRET units (multiplying by 1000 is an arbitrary step that simply makes the data easier to interpret; it has no impact on the data set itself) • 3. The mBRET units are then used in Scigilian Analyze software (https://analyze.scigilian.io) to determine the IC50 value using a 4-parameter fit analysis.
row,Structure (SMILES),IC50 [nM]
1,Cc1cc(Nc2nc(N(C)c3c(F)cc(S(C)(=O)=O)cc3F)nc(-c3cn(C)nc3C#N)c2C2CC2)n[nH]1 [Compound 115],22
2,Cc1cc(Nc2nc(N(C)c3c(F)cc(S(C)(=O)=O)cc3F)nc(-c3ncn(C)c3C)c2C2CC2)n[nH]1 [Compound 283],45
3,"Cc1cc(Nc2nc(N(C)c3ccc(S(C)(=O)=O)cc3F)nc(-c3cnn(C)c3)c2OC2CC2)n[nH]1 [Compound 344, 5-cyclopropoxy-N^2-(2-fluoro-4-(methylsulfonyl)phenyl)-N^2-methyl-N^4-(5-methyl-1H-pyrazol-3-yl)-6-(1-methyl-1H-pyrazol-4-yl)pyrimidine-2,4-diamine]",73
4,Cc1cc(Nc2nc(N(C)c3c(F)cc(S(C)(=O)=O)cc3F)nc(-c3cn(CC(C)(C)O)nc3C)c2C2CC2)n[nH]1 [Compound 330],9
5,Cc1cc(Nc2nc(N(C)c3c(F)cc([N+](=O)[O-])cc3F)nc(-c3cn(C)cn3)c2C2CC2)n[nH]1 [Compound 360],10
6,Cc1cc(Nc2nc(N(C)c3ccc(S(=O)(=O)C(C)(C)C)cc3)nc(-c3cnn(C)c3)c2C2CC2)n[nH]1 [Compound 82],65
7,"COc1c(Nc2cc(C)[nH]n2)nc(N(C)c2ccc(S(C)(=O)=O)cc2F)nc1-c1ccn(C)n1 [Compound 6, N^2-(2-fluoro-4-(methylsulfonyl)phenyl)-5-methoxy-N^2-methyl-6-(1-methyl-1H-pyrazol-3-yl)-N^4-(5-methyl-1H-pyrazol-3-yl)pyrimidine-2,4-diamine]",49
8,COCCn1cnc(-c2nc(N(C)c3c(F)cc(S(C)(=O)=O)cc3F)nc(Nc3cc(C)[nH]n3)c2C2CC2)c1 [Compound 139],4
9,"Cc1cc(Nc2nc(N(C)c3c(F)cc(S(C)(=O)=O)cc3F)nc(-c3ccn(C)n3)c2C2CC2)n[nH]1 [Compound 13, 5-cyclopropyl-N^2-(2,6-difluoro-4-(methylsulfonyl)phenyl)-N^2-methyl-6-(1-methyl-1H-pyrazol-3-yl)-N^4-(5-methyl-1H-pyrazol-3-yl)pyrimidine-2,4-diamine]",5
10,CN(C)C(=O)c1c(-c2nc(N(C)c3c(F)cc(S(C)(=O)=O)cc3F)nc(Nc3cc(C4CC4)[nH]n3)c2C2CC2)cnn1C [Compound 280],1
11,CNC(=O)CN(c1nc(Nc2cc(C)[nH]n2)c(OC)c(-c2cnn(C)c2)n1)c1ccc(S(C)(=O)=O)cc1F [Compound 85],9200
12,Cc1cc(Nc2nc(N(C)c3c(F)cc(S(C)(=O)=O)cc3F)nc(-c3cnn4c3CCC4)c2C2CC2)n[nH]1 [Compound 175],4
13,COc1c(Nc2cc(C)[nH]n2)nc(N(C)c2ccc(S(C)(=O)=O)c(Cl)c2F)nc1-c1cnn(C)c1 [Compound 117],220
14,Cc1cc(Nc2nc(N(C)c3c(F)cc(S(C)(=O)=O)cc3F)nc(-c3cn(CCS(C)(=O)=O)nc3C)c2C2CC2)n[nH]1 [Compound 226],6
15,Cc1cc(Nc2nc(N(C)c3c(F)cc(S(C)(=O)=O)cc3F)nc(-c3cn(C)nc3CC#N)c2C2CC2)n[nH]1 [Compound 329],4
16,Cc1cc(Nc2nc(N(CCO)c3c(F)cc(S(C)(=O)=O)cc3F)nc(-c3cn(C)cn3)c2C2CC2)n[nH]1 [Compound 238],34
17,COc1c(Nc2cc(C)[nH]n2)nc(N(C)c2ccc([S+](C)[O-])cc2)nc1-c1cnn(C)c1 (stereo not drawn) [Compound 79],2300
18,Cc1cc(Nc2nc(N(C)c3c(F)cc(S(C)(=O)=O)cc3F)nc(C(N)=O)c2C2CC2)n[nH]1 [Compound 179],260
19,Cc1cc(Nc2nc(N(C)c3c(F)cc(S(C)(=O)=O)cc3F)nc(-c3cnn4c3COCC4)c2C2CC2)n[nH]1 [Compound 182],11

# Continued, values first:
row,IC50 [nM],Structure (SMILES)
1,270,COCCCS(=O)(=O)c1ccc(N(C)c2nc(Nc3cc(C)[nH]n3)c(OC)c(-c3cnn(C)c3)n2)cc1 [Compound 67]
2,24,COc1cc(Nc2nc(N(C)c3c(F)cc(S(C)(=O)=O)cc3F)nc(-c3cnn(C)c3)c2C2CC2)n[nH]1 [Compound 292]
3,340,Cc1cc(Nc2nc(N(C)c3c(F)cc(S(C)(=O)=O)cc3F)nc(-c3nn(C)cc3C(N)=O)c2C2CC2)n[nH]1 [Compound 281]
4,2,COCCn1cc(-c2nc(N(C)c3c(F)cc(S(C)(=O)=O)cc3F)nc(Nc3cc(C)[nH]n3)c2C2CC2)c(C)n1 [Compound 160]
5,190,Cc1cc(Nc2nc(N(C)c3c(F)cc(S(C)(=O)=O)cc3F)nc(-c3ncnn3C)c2C2CC2)n[nH]1 [Compound 216]
6,20,"Cc1cc(Nc2nc(N(C)c3ccc(S(C)(=O)=O)cc3F)nc(-c3cn(C)cn3)c2C2CC2)n[nH]1 [Compound 17, 5-cyclopropyl-N^2-(2-fluoro-4-(methylsulfonyl)phenyl)-N^2-methyl-6-(1-methyl-1H-imidazol-4-yl)-N^4-(5-methyl-1H-pyrazol-3-yl)pyrimidine-2,4-diamine]"
7,63,Cc1cc(Nc2nc(N(C)c3ccc(S(C)(=O)=O)cc3Br)nc(-c3cnn(C)c3)c2C2CC2)n[nH]1 [Compound 53]
8,7,"Cc1cc(Nc2nc(N(C)c3cc(F)c(S(C)(=O)=O)cc3F)nc(-c3cn(C)cn3)c2C2CC2)n[nH]1 [Compound 125, 5-cyclopropyl-N^2-(2,5-difluoro-4-(methylsulfonyl)phenyl)-N^2-methyl-6-(1-methyl-1H-imidazol-4-yl)-N^4-(5-methyl-1H-pyrazol-3-yl)pyrimidine-2,4-diamine]"
9,5,Cc1cc(Nc2nc(N(C)c3c(F)cc(S(C)(=O)=O)cc3F)nc(-c3cc4n(C)c(=O)ccn4n3)c2C2CC2)n[nH]1 [Compound 245]
10,65,Cc1cc(Nc2nc(N(C)c3c(F)cc(C(=O)N4CCC4)cc3F)nc(-c3cn(C)cn3)c2C2CC2)n[nH]1 [Compound 359]
11,120,Cc1cn(-c2nc(N(C)c3ccc(S(C)(=O)=O)cc3F)nc(Nc3cc(C)[nH]n3)c2C2CC2)cn1 [Compound 107]
12,18,Cc1cc(Nc2nc(N(C)c3c(F)cc(S(C)(=O)=O)cc3F)nc(-c3cc(C#N)n(C)n3)c2C2CC2)n[nH]1 [Compound 145]
13,45,Cc1cc(Nc2nc(N(C)c3c(F)cc(S(C)(=O)=O)cc3F)nc(N3CC(n4cccn4)C3)c2C2CC2)n[nH]1 [Compound 233]
14,680,COc1c(Nc2cc(C)[nH]n2)nc(N(C(C)=O)c2ccc(S(C)(=O)=O)cc2F)nc1-c1cnn(C)c1 [Compound 41]
15,160,COc1c(Nc2cc(C)[nH]n2)nc(N(C)c2ccc(S(=O)(=O)C(C)C)cc2)nc1-c1cnn(C)c1 [Compound 87]
16,2100,COc1c(Nc2cc(C)[nH]n2)nc(N(C)c2ccc(S(C)(=O)=O)nc2C)nc1-c1cnn(C)c1 [Compound 54]
17,13,Cc1cc(Nc2nc(N(C)c3cc(F)c(S(C)(=O)=O)cc3F)nc(-c3cn(C)c(C)n3)c2C2CC2)n[nH]1 [Compound 187]
18,48,Cc1cc(Nc2nc(N(C)c3c(F)cc(S(C)(=O)=O)cc3F)nc(N3CC4(C3)CC(C)(O)C4)c2C2CC2)n[nH]1 [Compound 268]
19,4,Cc1cc(Nc2nc(N(C)c3c(F)cc(S(C)(=O)=O)cc3F)nc(-c3cc4n(n3)CCOC4)c2C2CC2)n[nH]1 [Compound 240]
20,6,Cc1cc(Nc2nc(N(C)c3c(F)cc(S(C)(=O)=O)cc3F)nc(-c3cn(C)nc3C(F)F)c2C2CC2)n[nH]1 [Compound 149]
21,3,Cc1cc(Nc2nc(N(C)c3c(F)cc(S(C)(=O)=O)cc3F)nc(-c3cn(CCF)c(C)n3)c2C2CC2)n[nH]1 [Compound 229]
22,8,Cc1cc(Nc2nc(N(C)c3c(F)cc(S(C)(=O)=O)cc3F)nc(-c3cnn(C)c3N3CCCC3=O)c2C2CC2)n[nH]1 [Compound 304]
23,8,Cc1cc(Nc2nc(N(C)c3c(F)cc(S(C)(=O)=O)cc3F)nc(-c3cnc4n3CCOC4)c2C2CC2)n[nH]1 [Compound 302]
